Experimental data: PMC3579662 (Journal of the American Chemical Society, 2013)

Legend:
[1] = target: T1, alanine racemase (AR); light protiated form HAR (Geobacillus stearothermophilus, UniProt P10724); experiment: steady-state racemization kinetics, competitive inhibition; type: biochemical
[2] = target: T1, alanine racemase (AR); light protiated form HAR; experiment: Michaelis-Menten saturation curves; type: biochemical; details: pH 8.9, 25 °C; light (protiated) enzyme

T1 sequence (P10724 whole entry): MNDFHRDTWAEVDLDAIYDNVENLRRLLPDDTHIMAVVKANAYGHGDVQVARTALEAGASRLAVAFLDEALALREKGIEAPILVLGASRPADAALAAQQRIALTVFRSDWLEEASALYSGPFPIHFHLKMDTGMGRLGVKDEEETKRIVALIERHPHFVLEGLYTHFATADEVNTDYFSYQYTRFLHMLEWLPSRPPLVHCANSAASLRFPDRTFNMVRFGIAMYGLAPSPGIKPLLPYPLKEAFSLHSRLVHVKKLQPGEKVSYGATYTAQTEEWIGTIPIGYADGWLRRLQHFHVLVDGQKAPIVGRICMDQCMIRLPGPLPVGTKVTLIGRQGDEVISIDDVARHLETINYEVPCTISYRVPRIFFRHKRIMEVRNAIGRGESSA

Ki [1] [mM] | SMILES | KM [2]
24 ± 1 | CC(C)(N)C(=O)O [2-methylalanine] | 
 | C[C@@H](N)C(=O)O [D-alanine] | Michaelis-Menten saturation curves for ^HAR and ^DAR with protiated L- and D-alanine
 | C[C@H](N)C(=O)O [L-alanine] | Michaelis-Menten saturation curves for ^HAR and ^DAR with protiated L- and D-alanine
